Results from ChEMBL document CHEMBL1201862, “PubChem BioAssay data set” (2004).
The source made the active and inactive calls.

Assays:
[1] = molecular target: T1, Sentrin-specific protease 8 (Homo sapiens, UniProt Q96LD8); assay type: functional;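 also: luminescence read-out of SENP8 inhibition, dose-response confirmation following an ultra-high-throughput screen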
T1 sequence (Q96LD8 whole entry): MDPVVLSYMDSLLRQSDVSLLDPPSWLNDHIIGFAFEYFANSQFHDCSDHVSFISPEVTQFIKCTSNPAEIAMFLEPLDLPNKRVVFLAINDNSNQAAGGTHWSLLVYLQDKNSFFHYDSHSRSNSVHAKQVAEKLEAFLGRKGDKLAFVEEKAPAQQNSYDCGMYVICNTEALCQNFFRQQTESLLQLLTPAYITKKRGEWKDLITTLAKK

[2] = molecular target: T2, Sentrin-specific protease 6 (Homo sapiens, UniProt Q9GZR1); assay type: functional;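 also: Luminescence-based dose-response confirmatory assay of SENP6 inhibition, following up an ultra-high-throughput screen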
T2 sequence (Q9GZR1 whole entry): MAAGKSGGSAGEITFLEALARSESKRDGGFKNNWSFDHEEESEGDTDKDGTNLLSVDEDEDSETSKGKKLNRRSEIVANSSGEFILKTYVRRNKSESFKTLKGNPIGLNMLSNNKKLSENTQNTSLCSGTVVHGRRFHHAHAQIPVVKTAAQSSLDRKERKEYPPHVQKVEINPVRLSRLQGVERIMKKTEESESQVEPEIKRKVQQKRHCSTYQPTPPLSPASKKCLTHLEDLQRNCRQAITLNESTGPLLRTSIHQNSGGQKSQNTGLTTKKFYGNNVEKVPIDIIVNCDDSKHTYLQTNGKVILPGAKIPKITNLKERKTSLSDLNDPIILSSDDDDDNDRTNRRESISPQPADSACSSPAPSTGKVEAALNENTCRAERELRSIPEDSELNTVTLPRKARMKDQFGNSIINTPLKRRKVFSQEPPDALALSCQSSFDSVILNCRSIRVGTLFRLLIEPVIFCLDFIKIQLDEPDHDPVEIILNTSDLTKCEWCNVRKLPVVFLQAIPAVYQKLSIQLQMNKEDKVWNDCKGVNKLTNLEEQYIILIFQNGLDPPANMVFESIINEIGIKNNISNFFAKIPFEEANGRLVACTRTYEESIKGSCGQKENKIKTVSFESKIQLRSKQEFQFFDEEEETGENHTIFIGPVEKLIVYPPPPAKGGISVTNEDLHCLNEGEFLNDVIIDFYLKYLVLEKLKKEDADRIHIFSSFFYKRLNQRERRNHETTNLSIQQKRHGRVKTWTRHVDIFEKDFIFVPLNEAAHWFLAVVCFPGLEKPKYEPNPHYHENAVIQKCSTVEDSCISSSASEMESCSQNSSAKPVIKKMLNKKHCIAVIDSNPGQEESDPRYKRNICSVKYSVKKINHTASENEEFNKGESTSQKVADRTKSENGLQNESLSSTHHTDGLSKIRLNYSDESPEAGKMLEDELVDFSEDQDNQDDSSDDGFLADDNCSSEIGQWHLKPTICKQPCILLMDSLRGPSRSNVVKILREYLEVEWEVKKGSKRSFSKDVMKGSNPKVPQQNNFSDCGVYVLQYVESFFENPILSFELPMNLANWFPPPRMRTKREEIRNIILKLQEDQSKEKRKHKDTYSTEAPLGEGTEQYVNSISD

[3] = molecular target: T3, Oxysterols receptor LXR-beta (Homo sapiens, UniProt P55055); assay type: functional, cell-based;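 also: Cell-based luminescence dose-response assay of agonist activity at LXR, run as a confirmatory counterscreen to a daf-12 agonist screen; agonist potency from rising luciferase signal of a Gal4-LXR reporter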
T3 sequence (P55055 whole entry): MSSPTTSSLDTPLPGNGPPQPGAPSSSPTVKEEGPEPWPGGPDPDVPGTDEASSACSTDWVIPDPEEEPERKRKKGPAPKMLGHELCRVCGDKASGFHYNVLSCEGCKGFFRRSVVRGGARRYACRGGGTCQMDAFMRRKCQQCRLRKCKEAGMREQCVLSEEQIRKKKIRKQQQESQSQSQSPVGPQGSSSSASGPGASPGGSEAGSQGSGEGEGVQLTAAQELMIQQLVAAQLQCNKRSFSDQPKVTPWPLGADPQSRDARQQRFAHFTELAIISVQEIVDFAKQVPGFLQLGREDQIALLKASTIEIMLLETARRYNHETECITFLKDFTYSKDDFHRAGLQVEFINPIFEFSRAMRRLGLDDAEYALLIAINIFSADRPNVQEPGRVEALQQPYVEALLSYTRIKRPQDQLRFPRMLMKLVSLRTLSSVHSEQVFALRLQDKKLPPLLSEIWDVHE

[4] = molecular target: T4, Sentrin-specific protease 7 (Homo sapiens, UniProt Q9BQF6); assay type: functional;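 also: Luminescence-based dose-response confirmation of ultra-high-throughput screening hits, measuring inhibition of SENP7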
T4 sequence (Q9BQF6 whole entry): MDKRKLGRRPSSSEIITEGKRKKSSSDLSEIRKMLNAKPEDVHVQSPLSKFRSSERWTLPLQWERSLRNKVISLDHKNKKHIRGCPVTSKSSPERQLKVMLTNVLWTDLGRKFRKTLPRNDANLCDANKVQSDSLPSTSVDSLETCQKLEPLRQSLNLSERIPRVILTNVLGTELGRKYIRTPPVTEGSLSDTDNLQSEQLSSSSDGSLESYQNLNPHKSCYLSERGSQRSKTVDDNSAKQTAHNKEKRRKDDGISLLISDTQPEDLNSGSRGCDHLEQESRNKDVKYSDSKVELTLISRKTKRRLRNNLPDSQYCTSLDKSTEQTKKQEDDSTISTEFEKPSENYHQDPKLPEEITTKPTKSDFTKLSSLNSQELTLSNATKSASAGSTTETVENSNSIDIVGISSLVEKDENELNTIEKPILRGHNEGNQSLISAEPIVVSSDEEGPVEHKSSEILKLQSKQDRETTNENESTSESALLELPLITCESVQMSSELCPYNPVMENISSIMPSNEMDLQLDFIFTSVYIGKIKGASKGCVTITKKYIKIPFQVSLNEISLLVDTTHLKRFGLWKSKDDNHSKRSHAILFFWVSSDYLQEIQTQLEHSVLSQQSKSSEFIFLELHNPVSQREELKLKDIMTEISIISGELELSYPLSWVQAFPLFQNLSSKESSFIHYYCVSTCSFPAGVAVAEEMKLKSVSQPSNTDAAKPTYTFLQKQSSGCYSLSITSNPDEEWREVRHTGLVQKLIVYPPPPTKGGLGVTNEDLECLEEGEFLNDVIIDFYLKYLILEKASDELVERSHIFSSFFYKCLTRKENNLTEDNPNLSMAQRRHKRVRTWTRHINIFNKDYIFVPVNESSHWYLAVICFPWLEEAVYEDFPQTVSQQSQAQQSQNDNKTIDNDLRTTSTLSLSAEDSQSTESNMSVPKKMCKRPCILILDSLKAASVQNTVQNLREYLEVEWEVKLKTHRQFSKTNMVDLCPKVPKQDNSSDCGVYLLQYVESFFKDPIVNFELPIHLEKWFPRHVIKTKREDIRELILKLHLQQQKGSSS

[5] = molecular target: T3, Oxysterols receptor LXR-beta; assay: LXR agonists, Gal4 luciferase reporter, dose response, counter-screen for ssDAF-12 agonist project, cell-based, luminescence, HEK293, S. stercoralis campaign (AID 720737); assay type: functional; conditions: read-out: IC50 (the source's name)
[6] = Luminescence-based cell-based high throughput dose response assay to identify activators of the DAF-12 from the parasite S. stercoralis (ssDAF-12).; assay type: functional
Caspase-3 = molecular target: T5, Caspase-3 (Homo sapiens, UniProt P42574); assay type: functional;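 also: Dose-response selectivity test against caspase-3 for candidate inhibitors of sentrin-specific proteases (SENPs)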
T5 sequence (P42574 whole entry): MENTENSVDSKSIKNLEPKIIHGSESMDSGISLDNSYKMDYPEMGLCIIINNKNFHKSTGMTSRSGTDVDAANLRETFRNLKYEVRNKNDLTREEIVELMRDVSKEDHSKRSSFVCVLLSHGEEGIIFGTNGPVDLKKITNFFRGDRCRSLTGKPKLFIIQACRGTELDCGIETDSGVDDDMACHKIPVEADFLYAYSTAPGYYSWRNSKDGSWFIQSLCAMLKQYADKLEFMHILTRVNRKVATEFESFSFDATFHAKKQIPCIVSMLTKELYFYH

[7] = luciferase reporter signal suppression in cells – H4 neuroglioma cells, luminescence, dose response (AID 1990); assay type: functional, cell-based
[8] = alpha-synuclein stem-loop luciferase translation blockers – H4 neuroglioma cells, luminescence, confirmation (AID 1988); assay type: functional, cell-based
[9] = Luminescence Cell-Based Dose Response HTS to Identify Inhibitors of 5'UTR Stem-Loop Driven Prion Protein mRNA Translation in H4 Neuroglioblastoma Cells. [Related pubchem assays: 1827 (Project Summary), 1813 (Primary HTS)]; assay type: functional
[10] = molecular target: RNA-editing ligase 1, mitochondrial (Trypanosoma brucei brucei, UniProt P86926); assay: inhibition of trypanosome RNA editing ligase – biochemical, fluorescence, Trypanosoma brucei, dose response (AID 1117295); assay type: functional
Chain of RNA-editing ligase 1, mitochondrial (P86926 whole entry): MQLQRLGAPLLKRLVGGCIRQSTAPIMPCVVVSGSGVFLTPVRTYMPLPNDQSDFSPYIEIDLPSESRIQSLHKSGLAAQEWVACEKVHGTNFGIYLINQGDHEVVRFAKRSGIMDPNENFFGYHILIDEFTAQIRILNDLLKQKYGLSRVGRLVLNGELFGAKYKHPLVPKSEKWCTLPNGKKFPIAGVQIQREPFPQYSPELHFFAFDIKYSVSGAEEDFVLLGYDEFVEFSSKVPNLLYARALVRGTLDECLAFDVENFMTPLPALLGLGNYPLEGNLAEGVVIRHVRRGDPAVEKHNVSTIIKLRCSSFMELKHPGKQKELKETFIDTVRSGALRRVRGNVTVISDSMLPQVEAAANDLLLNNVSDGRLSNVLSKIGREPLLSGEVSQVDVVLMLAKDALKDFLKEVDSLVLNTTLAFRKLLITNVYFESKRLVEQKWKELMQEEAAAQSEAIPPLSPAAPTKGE

Caspase-8 = Caspase-8 (Homo sapiens, UniProt Q14790); assay: inhibitors of purified CASP8 protease – biochemical, Z-IETD-R110 fluorescence, cherry-picked samples, selectivity assay for caspase-6 inhibitor project, dose response (AID 743294)
Chain of Caspase-8 (Q14790 217-374 limits assumed): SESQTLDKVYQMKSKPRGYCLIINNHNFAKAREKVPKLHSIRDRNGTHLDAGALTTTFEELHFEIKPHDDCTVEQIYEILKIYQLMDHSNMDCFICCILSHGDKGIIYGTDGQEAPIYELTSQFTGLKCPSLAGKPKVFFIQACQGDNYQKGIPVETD
Chain of Caspase-8 (Q14790 385-479 limits assumed): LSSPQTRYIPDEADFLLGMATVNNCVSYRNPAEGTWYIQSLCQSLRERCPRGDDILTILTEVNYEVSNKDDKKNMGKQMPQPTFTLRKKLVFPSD

Caspase-9 = Caspase-9 (Homo sapiens, UniProt P55211); assay: inhibitors of purified CASP9 protease – biochemical, fluorescence, plate reader, cherry-picked samples, selectivity assay for caspase-6 inhibitor project, dose response (AID 743293)
Chain of Caspase-9 (P55211 1-315 limits assumed): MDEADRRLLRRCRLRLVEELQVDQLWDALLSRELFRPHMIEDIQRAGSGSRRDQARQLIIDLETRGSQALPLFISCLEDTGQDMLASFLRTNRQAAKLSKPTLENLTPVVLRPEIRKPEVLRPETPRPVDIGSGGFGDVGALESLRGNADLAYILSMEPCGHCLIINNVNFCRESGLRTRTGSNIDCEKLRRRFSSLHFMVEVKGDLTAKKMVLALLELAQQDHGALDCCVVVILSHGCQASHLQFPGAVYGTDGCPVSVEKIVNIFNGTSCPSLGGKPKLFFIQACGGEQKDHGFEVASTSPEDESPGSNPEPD
Chain of Caspase-9 (P55211 331-416 limits assumed): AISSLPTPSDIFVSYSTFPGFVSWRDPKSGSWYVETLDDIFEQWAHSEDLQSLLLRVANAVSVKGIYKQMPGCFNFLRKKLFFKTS

[11] = molecular target: Tyrosyl-DNA phosphodiesterase 2 (Homo sapiens, UniProt O95551); assay: potency against TDP2 phosphodiesterase activity – biochemical, epi absorbance, IC50, dose response (AID 743297)
Chain of Tyrosyl-DNA phosphodiesterase 2 (O95551 whole entry): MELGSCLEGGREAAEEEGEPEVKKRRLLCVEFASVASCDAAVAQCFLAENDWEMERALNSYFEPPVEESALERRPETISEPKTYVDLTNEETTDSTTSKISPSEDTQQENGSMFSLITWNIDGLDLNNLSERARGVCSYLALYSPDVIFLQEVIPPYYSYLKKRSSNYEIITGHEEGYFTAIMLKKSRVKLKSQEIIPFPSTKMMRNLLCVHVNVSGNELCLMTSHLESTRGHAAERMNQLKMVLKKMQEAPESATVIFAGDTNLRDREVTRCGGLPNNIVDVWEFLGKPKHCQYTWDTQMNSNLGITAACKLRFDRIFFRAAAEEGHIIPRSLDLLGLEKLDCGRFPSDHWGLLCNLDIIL

[12] = molecular target: T6, Mitochondrial peptide methionine sulfoxide reductase (Bos taurus, UniProt P54149); assay: Absorbance-based biochemical high throughput dose response assay for activators of Methionine sulfoxide reductase A (MsrA).; assay type: functional
T6 sequence (P54149 whole entry): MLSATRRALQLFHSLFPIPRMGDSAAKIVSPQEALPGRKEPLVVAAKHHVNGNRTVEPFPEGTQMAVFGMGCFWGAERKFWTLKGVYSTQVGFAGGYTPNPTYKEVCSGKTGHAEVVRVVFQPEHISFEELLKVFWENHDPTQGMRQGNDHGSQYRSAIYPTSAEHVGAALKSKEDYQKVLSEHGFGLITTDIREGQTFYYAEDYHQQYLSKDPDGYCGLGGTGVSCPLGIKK

Caspase-6 = molecular target: T7, Caspase-6 (Homo sapiens, UniProt P55212); assay: inhibition of CASP6 peptide cleavage – biochemical, VEID-R110 fluorescence, cherry-pick, dose response (AID 720632)
T7 sequence (P55212 whole entry): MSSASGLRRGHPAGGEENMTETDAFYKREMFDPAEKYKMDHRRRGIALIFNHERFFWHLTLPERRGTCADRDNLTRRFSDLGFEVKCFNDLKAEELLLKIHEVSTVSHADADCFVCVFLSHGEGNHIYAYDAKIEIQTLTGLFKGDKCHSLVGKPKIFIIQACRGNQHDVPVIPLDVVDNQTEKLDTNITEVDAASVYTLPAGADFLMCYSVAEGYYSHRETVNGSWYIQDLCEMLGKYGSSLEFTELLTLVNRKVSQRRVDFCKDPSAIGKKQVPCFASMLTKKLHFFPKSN

Nonstructural protein 1 = Nonstructural protein 1 (Influenza A virus, UniProt Q194T2); assay type: functional, Influenza A virus (A/California/07/2009(H1N1))
Chain of Nonstructural protein 1 (Q194T2 whole entry): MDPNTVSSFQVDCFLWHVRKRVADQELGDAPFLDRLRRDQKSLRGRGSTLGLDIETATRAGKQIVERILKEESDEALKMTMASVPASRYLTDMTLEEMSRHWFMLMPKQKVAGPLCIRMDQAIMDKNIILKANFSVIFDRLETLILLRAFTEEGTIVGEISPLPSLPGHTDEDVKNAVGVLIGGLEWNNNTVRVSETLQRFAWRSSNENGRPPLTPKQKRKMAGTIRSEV

[13] = ATP-based viability loss in HEK293T cells – cell-based, CellTiter-Glo luminescence, dry powder, set 2, cytotoxicity control, dose response (AID 720595); assay type: functional; conditions: HEK293
[14] = molecular target: T8, Muscarinic acetylcholine receptor M5 (Homo sapiens, UniProt P08912); assay: agonist curve shift by M5 PAMs – cell-based, calcium fluorescence, mechanism study (AID 651776); assay type: functional
T8 sequence (P08912 whole entry): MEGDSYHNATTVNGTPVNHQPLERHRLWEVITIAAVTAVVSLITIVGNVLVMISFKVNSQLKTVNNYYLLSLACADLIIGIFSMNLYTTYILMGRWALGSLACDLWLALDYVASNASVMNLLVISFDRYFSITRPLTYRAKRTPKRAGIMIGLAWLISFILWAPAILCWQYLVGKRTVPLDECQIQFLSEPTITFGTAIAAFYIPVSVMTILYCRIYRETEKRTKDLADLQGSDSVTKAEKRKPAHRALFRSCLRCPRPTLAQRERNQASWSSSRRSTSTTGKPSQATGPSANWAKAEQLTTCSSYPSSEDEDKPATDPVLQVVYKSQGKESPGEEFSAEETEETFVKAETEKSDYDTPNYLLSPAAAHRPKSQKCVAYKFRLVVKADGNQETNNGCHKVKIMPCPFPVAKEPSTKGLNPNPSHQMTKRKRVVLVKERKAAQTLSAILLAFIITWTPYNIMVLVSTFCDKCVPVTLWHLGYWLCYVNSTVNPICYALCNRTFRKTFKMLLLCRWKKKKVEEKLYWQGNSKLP

[15] = molecular target: T8, Muscarinic acetylcholine receptor M5; assay: potentiation of ACh response at human M5 – cell-based, concentration-response curve, dose response (AID 651878); assay type: functional
[16] = molecular target: Muscarinic acetylcholine receptor M5 (Rattus norvegicus, UniProt P08911); assay: Discovery of Selective Novel Positive Allosteric Modulators (PAM) of the Muscarinic Receptor (M5) in CHO cells expressing Rattus Norvegicus M5 receptor.; assay type: functional, cell-based
Chain of Muscarinic acetylcholine receptor M5 (Rattus norvegicus, UniProt P08911) (P08911 whole entry): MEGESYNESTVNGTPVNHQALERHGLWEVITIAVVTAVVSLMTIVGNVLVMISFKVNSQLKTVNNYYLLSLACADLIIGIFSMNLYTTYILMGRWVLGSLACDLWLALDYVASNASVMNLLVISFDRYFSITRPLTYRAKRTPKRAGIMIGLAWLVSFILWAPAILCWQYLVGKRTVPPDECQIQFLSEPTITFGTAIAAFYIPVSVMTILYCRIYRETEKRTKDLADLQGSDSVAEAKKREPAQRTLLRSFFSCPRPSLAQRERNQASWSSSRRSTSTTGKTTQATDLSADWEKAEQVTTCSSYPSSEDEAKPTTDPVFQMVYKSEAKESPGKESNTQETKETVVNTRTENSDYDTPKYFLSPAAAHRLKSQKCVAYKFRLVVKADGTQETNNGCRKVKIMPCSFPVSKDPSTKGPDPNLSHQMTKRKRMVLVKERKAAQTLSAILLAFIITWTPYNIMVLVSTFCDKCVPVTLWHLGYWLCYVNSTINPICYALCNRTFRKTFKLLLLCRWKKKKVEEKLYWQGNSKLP

[17] = Dd2 parasite growth inhibition in erythrocytes – SYBR Green, dry powder samples, set 9, dose response (AID 1159568); assay type: functional, cell-based
[18] = molecular target: Metabotropic glutamate receptor 7 (Homo sapiens, UniProt Q14831); assay: potentiation of glutamate EC20 at mGlu7 – cell-based, calcium mobilization, Galpha15, dose response (AID 743384); assay type: functional
Chain of Metabotropic glutamate receptor 7 (Q14831 whole entry): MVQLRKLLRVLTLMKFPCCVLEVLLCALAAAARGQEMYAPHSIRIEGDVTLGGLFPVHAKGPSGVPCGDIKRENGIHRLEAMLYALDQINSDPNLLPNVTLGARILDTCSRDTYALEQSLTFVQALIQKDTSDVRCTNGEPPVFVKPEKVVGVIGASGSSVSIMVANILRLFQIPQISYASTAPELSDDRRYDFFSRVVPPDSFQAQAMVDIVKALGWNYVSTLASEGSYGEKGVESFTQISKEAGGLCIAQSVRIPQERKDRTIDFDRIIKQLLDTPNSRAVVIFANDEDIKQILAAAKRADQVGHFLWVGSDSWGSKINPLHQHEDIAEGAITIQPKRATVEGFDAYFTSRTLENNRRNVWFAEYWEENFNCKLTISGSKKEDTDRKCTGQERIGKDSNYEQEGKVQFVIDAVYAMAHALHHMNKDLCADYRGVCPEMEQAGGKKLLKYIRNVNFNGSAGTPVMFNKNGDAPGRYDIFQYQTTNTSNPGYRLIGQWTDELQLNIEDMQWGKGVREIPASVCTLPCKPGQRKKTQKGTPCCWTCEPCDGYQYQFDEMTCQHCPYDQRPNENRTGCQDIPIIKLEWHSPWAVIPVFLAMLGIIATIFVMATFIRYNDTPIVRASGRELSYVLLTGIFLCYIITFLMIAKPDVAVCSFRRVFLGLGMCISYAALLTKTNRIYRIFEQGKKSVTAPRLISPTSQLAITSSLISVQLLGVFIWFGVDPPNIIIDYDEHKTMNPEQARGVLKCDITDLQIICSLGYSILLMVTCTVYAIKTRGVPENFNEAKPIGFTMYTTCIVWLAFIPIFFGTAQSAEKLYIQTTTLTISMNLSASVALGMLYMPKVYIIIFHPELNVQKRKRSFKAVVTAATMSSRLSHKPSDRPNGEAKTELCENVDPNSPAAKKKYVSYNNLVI

Phospholipase D2 = Phospholipase D2 (Homo sapiens, UniProt O14939); assay: PLD2 Cellular Concentration Response Study.; assay type: functional
Phospholipase D1 = Phospholipase D1 (Homo sapiens, UniProt Q13393); assay: PLD1 Cellular Concentration Response Study.; assay type: functional
Chain of Phospholipase D1 (Q13393 whole entry): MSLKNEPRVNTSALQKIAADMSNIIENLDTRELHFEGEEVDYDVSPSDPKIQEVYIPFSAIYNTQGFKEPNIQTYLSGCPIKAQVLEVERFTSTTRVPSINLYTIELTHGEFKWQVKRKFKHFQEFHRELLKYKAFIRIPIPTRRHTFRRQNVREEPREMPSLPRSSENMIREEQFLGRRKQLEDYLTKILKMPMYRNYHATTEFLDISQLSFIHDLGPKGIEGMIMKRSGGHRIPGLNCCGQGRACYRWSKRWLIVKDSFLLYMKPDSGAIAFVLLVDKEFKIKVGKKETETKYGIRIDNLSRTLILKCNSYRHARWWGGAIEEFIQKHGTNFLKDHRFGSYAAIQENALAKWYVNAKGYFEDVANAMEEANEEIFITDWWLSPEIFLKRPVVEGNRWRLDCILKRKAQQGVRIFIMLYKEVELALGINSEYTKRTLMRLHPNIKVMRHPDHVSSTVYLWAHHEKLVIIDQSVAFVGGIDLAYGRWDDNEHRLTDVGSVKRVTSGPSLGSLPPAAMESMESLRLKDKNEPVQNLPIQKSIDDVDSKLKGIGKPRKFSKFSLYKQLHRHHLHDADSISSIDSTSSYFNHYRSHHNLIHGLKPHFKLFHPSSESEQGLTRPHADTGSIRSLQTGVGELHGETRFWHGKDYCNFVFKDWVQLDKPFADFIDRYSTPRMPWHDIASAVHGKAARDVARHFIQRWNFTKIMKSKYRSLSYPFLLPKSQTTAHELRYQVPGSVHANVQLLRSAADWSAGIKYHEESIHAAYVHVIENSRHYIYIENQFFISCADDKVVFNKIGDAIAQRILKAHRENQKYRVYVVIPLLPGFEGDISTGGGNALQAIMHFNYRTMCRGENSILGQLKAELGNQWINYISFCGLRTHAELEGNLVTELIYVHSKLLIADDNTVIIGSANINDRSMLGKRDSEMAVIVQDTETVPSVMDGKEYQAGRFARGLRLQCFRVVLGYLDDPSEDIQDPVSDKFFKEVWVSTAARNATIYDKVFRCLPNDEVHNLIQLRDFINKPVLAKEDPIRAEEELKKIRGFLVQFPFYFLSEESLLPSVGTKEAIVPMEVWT

O=C(Nc1nc2ccccc2[nH]1)Nc1ccccc1F
IC50 [1]: 14.5 µM (active) | IC50 [2]: 10.6 µM (active) | EC50 [3]: > 67.5 µM (inactive) | IC50 [4]: 7.28 µM (active) | EC50 [5]: > 67.5 µM (inactive) | IC50 [6]: > 67.5 µM (inactive) | EC50 (cells): > 67.5 µM (inactive) | IC50 (Caspase-3): 18.5 µM (active)

O=c1cc(CN2CCc3ccccc32)nc2sccn12
EC50 [7]: 18.2 µM (active) | EC50 [8]: 10.9 µM (active) | EC50 [9]: 0.231 µM (active) | IC50 [10]: 22.9 µM (inactive)

COc1cc(NC(=O)COC(=O)c2ccc([N+](=O)[O-])s2)cc(OC)c1OC
IC50 [1]: 3.88 µM (active) | AC50 (Caspase-8): 20.4 µM (active) | IC50 [2]: 3.82 µM (active) | AC50 (Caspase-9): 21.5 µM (active) | IC50 [11]: 48.3 µM (inactive) | IC50 [4]: 5.51 µM (active) | EC50 [12]: 63.6 µM (inactive) | AC50 (Caspase-6): 2.44 µM (active) | IC50 (Caspase-3): 8.45 µM (active)

COC(=O)Cc1cc(O)n(-c2nc3ccccc3[nH]2)n1
IC50 (Nonstructural protein 1): 12.5 µM (active) | AC50 [13]: 30.4 µM (active)

O=C1C(=O)N(CCOc2ccccc2)c2ccc(OC(F)(F)F)cc21
EC50 [14]: 51.6 µM (active) | EC50 [15]: 0.55 µM | EC50 [16]: 0.466 µM

CC(C)NC(=O)NCC[C@@H]1CC[C@H](NS(=O)(=O)c2ccc(Oc3ccccc3)cc2)[C@@H](CO)O1
AC50 [17]: 32.1 µM (active)

COc1ccc(SCC(=O)c2cc(C)n(-c3ccc(OC(F)F)cc3)c2C)cc1
EC50 [18]: 3.16 µM (active)

O=C(NCCN1CCC2(CC1)C(=O)NCN2Cc1ccccn1)c1ccc2ccccc2c1
IC50 (Phospholipase D2): 0.08 µM (active) | IC50 (Phospholipase D1): 2.63 µM (active)
